In patent US20040121489A1, “COX-2 mediated altered prostaglandin balance in diabetes complications” (priority 2002, published 2004):

Legend:
COX-2 = molecular target: T1, COX-2 (Mus musculus, UniProt Q05769); conditions: cited from Zhao et al., Mol. Carcinog. 1999; cited from earlier work
T1 construct: cyclooxygenase 2 and interleukin-1 alpha expression in SENCAR mouse epidermis
T1 sequence (Q05769 18-604): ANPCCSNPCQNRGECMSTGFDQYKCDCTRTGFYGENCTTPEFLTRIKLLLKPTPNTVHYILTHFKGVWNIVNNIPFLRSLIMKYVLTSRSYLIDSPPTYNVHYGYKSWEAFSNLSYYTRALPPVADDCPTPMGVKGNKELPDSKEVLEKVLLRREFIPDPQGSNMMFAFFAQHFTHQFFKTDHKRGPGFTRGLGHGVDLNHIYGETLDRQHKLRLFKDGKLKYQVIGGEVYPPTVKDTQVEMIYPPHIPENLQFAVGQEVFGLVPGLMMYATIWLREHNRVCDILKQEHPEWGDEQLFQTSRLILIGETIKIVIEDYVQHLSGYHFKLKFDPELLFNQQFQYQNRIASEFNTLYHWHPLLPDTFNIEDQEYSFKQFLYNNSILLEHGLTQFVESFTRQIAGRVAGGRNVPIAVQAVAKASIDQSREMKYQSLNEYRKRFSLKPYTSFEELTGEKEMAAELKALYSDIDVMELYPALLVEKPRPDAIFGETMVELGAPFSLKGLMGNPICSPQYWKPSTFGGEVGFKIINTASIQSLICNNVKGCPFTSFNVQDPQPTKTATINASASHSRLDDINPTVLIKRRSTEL

urinary PGE2/TXB2 ratio = test: Selective COX-2 and COX-1 blockage in mice, urinary PGE2/TXB2 ratio pre- and post-intervention; format: in vivo, mice (NOD, B6, B6.NODc1t)
Description: Urine was directly aliquoted and stored at −70° C. until assay. Enzyme immunoassay was used to particularly detect renal derived metabolites and the systemic derived metabolites. […] The EIA kits utilize a competitive binding assay between unlabeled compound from the specimen sample and a fixed quantity of peroxidase labeled compound for a limited number of binding sites on a compound specific antibody. Assays were performed in 96 well microtitre plates with 50 μL specimen. The unknown sample was bound to appropriate antiserum and conjugate and optical density read at 450 nm using a BIORAD 3550 UV microplate reader. Raw optical density data was converted to percent binding by plotting the percent binding B/Bo as a function of the log compound concentration. Concentration of the prostanoid compound was then directly calculated in pg/well. This concentration was then converted to pg/mL and subsequently to pg/mg urinary creatinine to adjust for urinary concentration, body size and age. The final ratios of PGE2/TXB2 or PGE2+6kPGF1α/TXB2 were then directly calculated.
Selective COX-2 and COX-1 blockage were analyzed in three groups of mice—NOD mice, B6 mice, and a congenic B6.NODc1t strain.
Eight age-matched female 6-8 week old mice of each strain (NOD, B6, and C1t) were divided into two groups.

SMILES	COX-2 inhibition relative to COX-1 inhibition (COX-2)	increase in the urinary PGE2/TXB2 ratio (urinary PGE2/TXB2 ratio; 10 mg/kg/d i.p. daily for 14 days, all the three strains of mice (NOD, B6, B6.NODc1t), female 6-8 week old)	difference in urinary PGE2/TXB2 (Dunn's simultaneous multiple comparison test) (urinary PGE2/TXB2 ratio; NOD and B6.NODc1t group, COX-2 blocker 10 mg/kg/d i.p. 14 days, pre- vs post-intervention)
COc1cc(C2Oc3cc([C@H]4Oc5cc(O)cc(O)c5C(=O)[C@@H]4O)ccc3OC2CO)ccc1O (stereo partly drawn) [silybinin]	significant COX-2 inhibition		
CS(=O)(=O)Nc1ccc([N+](=O)[O-])cc1OC1CCCCC1 [NS-398]		3-7 fold	significant
